Measurements reported in ChEMBL document CHEMBL1144982, “Ganglioside GM1 mimics: lipophilic substituents improve affinity for cholera toxin” (Bioorg Med Chem Lett, 2003).

Experiment: Dissociation constant by non-linear regression analysis
Assay type: physicochemical

Row | SMILES | Kd [µM]
1 | CC(=O)N[C@@H]1[C@H](O[C@H]2C[C@H](C(=O)OC(C)(C)C)[C@@H](C(=O)OC(C)(C)C)C[C@H]2O[C@H](C)C(=O)O)O[C@@H](CO)[C@H](O)[C@@H]1O[C@@H]1O[C@@H](CO)[C@H](O)[C@H](O)[C@@H]1O | 190
2 | CC(=O)N[C@@H]1[C@H](O[C@H]2C[C@H](C(=O)OC(C)(C)C)[C@@H](C(=O)OC(C)(C)C)C[C@H]2O[C@H](CC2CCCCC2)C(=O)O)O[C@@H](CO)[C@H](O)[C@@H]1O[C@@H]1O[C@@H](CO)[C@H](O)[C@H](O)[C@@H]1O | 45
3 | CC(=O)N[C@@H]1[C@H](O[C@H]2C[C@H](C(=O)OC(C)(C)C)[C@@H](C(=O)OC(C)(C)C)C[C@H]2O[C@H](Cc2ccccc2)C(=O)O)O[C@@H](CO)[C@H](O)[C@@H]1O[C@@H]1O[C@@H](CO)[C@H](O)[C@H](O)[C@@H]1O | 10
